How the values were obtained:
[1] = molecular target: T1, Protein kinase C epsilon type (Homo sapiens, UniProt Q02156); assay: Inhibitory concentration against recombinant human Protein kinase C epsilon
T1 sequence (Q02156 whole entry): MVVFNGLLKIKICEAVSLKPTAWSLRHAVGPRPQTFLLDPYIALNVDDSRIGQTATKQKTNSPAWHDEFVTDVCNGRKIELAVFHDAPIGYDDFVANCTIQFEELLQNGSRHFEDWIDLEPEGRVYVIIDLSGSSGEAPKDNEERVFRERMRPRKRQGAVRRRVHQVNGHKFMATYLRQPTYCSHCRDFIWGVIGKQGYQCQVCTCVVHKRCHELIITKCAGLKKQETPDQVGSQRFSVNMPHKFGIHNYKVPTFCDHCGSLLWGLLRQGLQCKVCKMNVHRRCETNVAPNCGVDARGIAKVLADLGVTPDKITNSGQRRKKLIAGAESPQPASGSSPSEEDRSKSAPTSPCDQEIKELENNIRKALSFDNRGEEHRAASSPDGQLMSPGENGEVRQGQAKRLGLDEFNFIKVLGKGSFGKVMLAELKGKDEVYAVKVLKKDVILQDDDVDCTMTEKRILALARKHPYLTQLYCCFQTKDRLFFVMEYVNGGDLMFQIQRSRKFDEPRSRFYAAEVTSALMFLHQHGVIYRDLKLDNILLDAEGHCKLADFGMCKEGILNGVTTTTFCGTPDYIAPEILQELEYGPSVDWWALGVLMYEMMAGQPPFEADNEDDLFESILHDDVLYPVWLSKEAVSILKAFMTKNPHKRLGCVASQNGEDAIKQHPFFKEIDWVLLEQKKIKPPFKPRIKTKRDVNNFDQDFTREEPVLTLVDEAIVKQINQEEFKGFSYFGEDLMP

[2] = molecular target: T2, Protein kinase C beta type (Homo sapiens, UniProt P05771); assay: Inhibitory concentration against recombinant human Protein kinase C beta 2
T2 sequence (P05771 whole entry): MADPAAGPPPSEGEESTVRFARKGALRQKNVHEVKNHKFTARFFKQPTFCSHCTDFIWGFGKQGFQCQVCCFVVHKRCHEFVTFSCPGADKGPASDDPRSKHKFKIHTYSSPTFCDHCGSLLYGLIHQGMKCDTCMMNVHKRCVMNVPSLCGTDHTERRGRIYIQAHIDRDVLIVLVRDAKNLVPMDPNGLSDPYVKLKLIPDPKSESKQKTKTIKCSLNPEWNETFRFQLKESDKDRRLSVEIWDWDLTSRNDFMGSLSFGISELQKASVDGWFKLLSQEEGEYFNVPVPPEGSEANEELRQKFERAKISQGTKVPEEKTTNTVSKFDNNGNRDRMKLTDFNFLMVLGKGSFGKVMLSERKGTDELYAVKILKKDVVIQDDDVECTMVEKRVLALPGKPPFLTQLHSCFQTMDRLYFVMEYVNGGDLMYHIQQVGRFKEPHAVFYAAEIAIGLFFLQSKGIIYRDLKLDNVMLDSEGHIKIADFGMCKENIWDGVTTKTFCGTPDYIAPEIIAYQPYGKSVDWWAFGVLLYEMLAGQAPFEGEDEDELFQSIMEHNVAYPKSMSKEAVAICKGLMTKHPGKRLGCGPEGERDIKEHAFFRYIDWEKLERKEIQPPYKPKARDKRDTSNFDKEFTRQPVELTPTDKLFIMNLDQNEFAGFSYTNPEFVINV

[3] = molecular target: Protein kinase C alpha type (Homo sapiens, UniProt P17252); assay: Inhibitory concentration against recombinant human Protein kinase C alpha
[4] = molecular target: T2, Protein kinase C beta type; assay: Inhibitory concentration against recombinant human Protein kinase C beta 1

| IC50 [1] | IC50 [2] | SMILES | also measured |
| --- | --- | --- | --- |
| 6320 nM |  | O=C1NC(=O)C(c2cn(CCCO)c3ccccc23)=C1Nc1ccccc1 |  |
|  | 939 nM | CN(C1=C(c2c[nH]c3ccccc23)C(=O)NC1=O)c1ccccc1 |  |
| 3900 nM | 41 nM | CN(C)CCCCCn1cc(C2=C(Nc3ccccc3)C(=O)NC2=O)c2ccccc21 | IC50 [3]: 2230 nM |
| > 10000 nM |  | CN(C)CCn1cc(C2=C(Nc3ccccc3)C(=O)NC2=O)c2ccccc21 |  |
| 5870 nM |  | CN(C)CCCCn1cc(C2=C(Nc3ccccc3)C(=O)NC2=O)c2ccccc21 |  |
| 2810 nM |  | O=C1NC(=O)C(c2cn(CCCn3ccnc3)c3ccccc23)=C1Nc1ccccc1 | IC50 [4]: 21 nM |
| > 10000 nM |  | O=C1NC(=O)C(c2c[nH]c3ccccc23)=C1Nc1ccccc1 | IC50 [4]: 395 nM |
|  | 480 nM | Cc1ccc(NC2=C(c3c[nH]c4ccccc34)C(=O)NC2=O)cc1 |  |
| 2610 nM |  | CN(C)CCCn1cc(C2=C(Nc3cccc(Cl)c3)C(=O)NC2=O)c2ccccc21 |  |
| > 10000 nM |  | O=C1NC(=O)C(c2cn(CCCN3CCCC3)c3ccccc23)=C1Nc1ccccc1 |  |
|  | > 10000 nM | O=C1NC(=O)C(c2c[nH]c3ccccc23)=C1NCc1ccccc1 |  |
| > 10000 nM |  | CN1CCN(CCCn2cc(C3=C(Nc4ccccc4)C(=O)NC3=O)c3ccccc32)CC1 |  |
| 3460 nM |  | Cc1cccc(NC2=C(c3cn(CCCN(C)C)c4ccccc34)C(=O)NC2=O)c1 |  |
|  | 2450 nM | O=C1NC(=O)C(c2c[nH]c3ccccc23)=C1NC1CCCCC1 |  |
| 58 nM |  | N=C(N)SCCCn1cc(C2=C(Nc3ccccc3)C(=O)NC2=O)c2ccccc21 |  |
| 3460 nM |  | CN(C)CCCn1cc(C2=C(Nc3ccccc3)C(=O)NC2=O)c2ccccc21 |  |
|  | 747 nM | COc1cccc(NC2=C(c3c[nH]c4ccccc34)C(=O)NC2=O)c1 |  |
|  | 1450 nM | O=C1NC(=O)C(c2c[nH]c3ccccc23)=C1Nc1cccc(C(F)(F)F)c1 |  |
|  | 2150 nM | Cc1ccccc1NC1=C(c2c[nH]c3ccccc23)C(=O)NC1=O |  |
| 3420 nM |  | O=C1NC(=O)C(c2cn(CCCN3CCCCC3)c3ccccc23)=C1Nc1ccccc1 |  |
|  | 2860 nM | CC(C)c1cccc(NC2=C(c3c[nH]c4ccccc34)C(=O)NC2=O)c1 |  |
| 7520 nM | 212 nM | O=C1NC(=O)C(c2c[nH]c3ccccc23)=C1c1c[nH]c2ccccc12 [RO-316233] | IC50 [3]: 1600 nM; IC50 [4]: 304 nM |
